Results published in PMC7127754 (Bioorganic & Medicinal Chemistry, 2008).

Molecular target: SARS-CoV 3CL protease (Severe acute respiratory syndrome coronavirus, UniProt P0C6X7)
Experiment: biochemical
Settings: IC50 (inhibition of SARS-CoV 3CL protease)

CCCCCCCCC(=O)N[C@@H](CC(C)C)C(=O)NC(Cc1ccccc1)C(=O)C(F)(F)F (mixture of isomers) [Compound 5g, 3-{N-[N-CH3(CH2)7(C?O)-L-Leu]}-4-phenyl-1,1,1-trifluorobutan-2-one]
IC50: > 50 µM

C[C@H](NC(=O)CC[C@H](NC(=O)OC(C)(C)C)C(=O)OC(C)(C)C)C(=O)NCC(=O)C(F)(F)F [Compound 5d, 3-{N-[N-tert-Butoxycarbonyl-L-γGlu(OtBu)-L-Ala]}-1,1,1-trifluoropropan-2-one]
IC50: 40 µM
